Values after ≈ are worked out from the molar mass of the structure shown. Read-outs that look alike come from different tables or passages of the source.
How the values were obtained:
[1] = tested on: Staphylococcus aureus (UC 9213); assay: Murine Assay procedure (in vivo), survival after intraperitoneal infection; conditions: UC9213, 144 h, oral administration one hour and five hours after infection, female mice infected i.p. with S. aureus UC 9213, survival over six days, probit analysis
Method: Groups of female mice (six mice of 18-20 grams each) were injected intraperitoneally with Staphylococcus aureus (UC 9213) bacteria which were thawed just prior to use and suspended in brain heart infusion with 4% brewer's yeast (Staphylococcus aureus) or brain heart infusion (Streptococcus species). Antibiotic treatment at six dose levels per drug (compound) was administered one hour and five hours after infection by either oral intubation or subcutaneous routes. Survival was observed daily for six days. ED50 values based on mortality ratios were calculated using probit analysis.

[2] = tested on: Streptococcus pyogenes (UC 152); assay: MIC test, standard agar dilution method; conditions: UC152, read-out: Minimum Inhibitory Concentrations (MIC) S. pyogenes
[3] = tested on: Staphylococcus epidermidis (UC 12084); assay: MIC test, standard agar dilution method; type: cell-based; conditions: UC12084, incubated overnight at 35°C, read-out: Minimum Inhibitory Concentrations (MIC) S. enidermidis
[4] = tested on: Staphylococcus aureus; assay: MIC test, standard agar dilution method
[5] = tested on: Mycobacterium tuberculosis; assay: MIC test, standard agar dilution method; type: cell-based; conditions: read-out: Minimum Inhibitory Concentrations (MIC) M. tuberculosis
[6] = UC9213, read-out: Minimum Inhibitory Concentrations (MIC) S. aureus

Compound | ED50 [1] [mg/kg] | MIC [2] [µg/mL] | MIC [3] [µg/mL] | MIC [4, 6] [µg/mL] | MIC [5] [µg/mL] | MIC ([4]; UC9218, read-out: Minimum Inhibitory Concentrations (MIC) S. aureus) [µg/mL]
COC(=O)NC1CCN(c2ccc(N3C[C@H](CNC(C)=O)OC3=O)cc2F)CC1 [Compound No. 30, (S)-N-{3-[3-fluoro-4-(4-methoxycarbonylamino-piperidin-1-yl)-phenyl]-2-oxo-oxazolidin-5-ylmethyl}-acetamide] | 2.8 | 2 (≈ 4.9 µM) | 2 (≈ 4.9 µM) | 4 (≈ 9.79 µM) |  | 
CC(=O)NC[C@H]1CN(c2ccc(N3CCC(=O)CC3)c(F)c2)C(=O)O1 [Compound No. 7, (S)-N-{3-[3-fluoro-4-(4-oxo-piperidin-1-yl)-phenyl]-2-oxo-oxazolidin-5-ylmethyl}-acetamide] | 8.1 | 2 (≈ 5.72 µM) | 0.5 (≈ 1.43 µM) | 2 (≈ 5.72 µM) |  | 
COC(=O)NN=C1CCN(c2ccc(N3C[C@H](CNC(C)=O)OC3=O)cc2F)CC1 [Compound No. 31, (S)-N-{3-[3-fluoro-4-(4-methoxycarbonylhydrazono-piperidin-1-yl)-phenyl]-2-oxo-oxazolidin-5-ylmethyl}-acetamide] | 5 | 1 (≈ 2.37 µM) | 0.5 (≈ 1.19 µM) | 2 (≈ 4.75 µM) |  | 
CC(=O)NC[C@H]1CN(c2ccc(N3CCC(=NOC(=O)COCc4ccccc4)CC3)c(F)c2)C(=O)O1 [compound 45, (S)-N-{3-[3-fluoro-4-(4-benzyloxyacetoxyimino-piperidin-1-yl)-phenyl]-2-oxo-oxazolidin-5-ylmethyl}-acetamide] |  | 2 (≈ 3.9 µM) | 0.5 (≈ 0.976 µM) | 2 (≈ 3.9 µM) |  | 
CC(=O)NC[C@H]1CN(c2ccc(N3CCC4(CC3)OCCN4C(=O)CO)c(F)c2)C(=O)O1 [Compound No. 54, (S)-N-(3-{3-fluoro-4-[4-(2-hydroxy-acetyl)-1-oxa-4,8-diaza-spiro[4.5]dec-8-yl]-phenyl}-2-oxo-oxazolidin-5-ylmethyl)-acetamide] |  | 4 (≈ 8.88 µM) | 4 (≈ 8.88 µM) | 16 (≈ 35.5 µM) |  | 
CC(=O)NC[C@H]1CN(c2ccc(N3CCC(=NNC(=O)CO)CC3)c(F)c2)C(=O)O1 [compound 50, (S)-N-[3-(3-fluoro-4-{4-[(2-hydroxy-acetyl)-hydrazono]-piperidin-1-yl}-phenyl)-2-oxo-oxazolidin-5-ylmethyl]-acetamide] |  | 4 (≈ 9.49 µM) | 4 (≈ 9.49 µM) | 16 (≈ 38 µM) |  | 
CC(=O)NC[C@H]1CN(c2ccc(N3CCC(=NN)CC3)c(F)c2)C(=O)O1 [compound 46, (S)-N-{3-[3-fluoro-4-(4-hydrazono-piperidin-1-yl)-phenyl]-2-oxo-oxazolidin-5-ylmethyl}-acetamide] |  | 2 (≈ 5.5 µM) | 0.5 (≈ 1.38 µM) | 2 (≈ 5.5 µM) |  | 
CCOC(=O)C1CCN(c2ccc(N3C[C@H](CNC(C)=O)OC3=O)cc2F)CC1 [Compound No. 1, (S)-1-{4-[5-(acetylamino-methyl)-2-oxo-oxazolidin-3-yl]-2-fluoro-phenyl}-piperidine-4-carboxylic acid ethyl ester] |  | 2 (≈ 4.91 µM) | 2 (≈ 4.91 µM) |  | 1 (≈ 2.45 µM) | 8 (≈ 19.6 µM)
CC(=O)NC[C@H]1CN(c2ccc(N3CCC(=NO)CC3)c(F)c2)C(=O)O1 [Compound No. 11, (S)-N-{3-[3-fluoro-4-(4-hydroxyimino-piperidin-1-yl)-phenyl]-2-oxo-oxazolidin-5-ylmethyl}-acetamide] | 8.2 | 1 (≈ 2.74 µM) | 1 (≈ 2.74 µM) | 2 (≈ 5.49 µM) |  | 
C=CCON=C1CCN(c2ccc(N3C[C@H](CNC(C)=O)OC3=O)cc2F)CC1 [Compound No. 58, (S)-N-{3-[4-(4-allyloxyimino-piperidin-1-yl)-3-fluoro-phenyl]-2-oxo-oxazolidin-5-ylmethyl}-acetamide] |  | 2 (≈ 4.95 µM) | 1 (≈ 2.47 µM) | 8 (≈ 19.8 µM) |  | 
CC(=O)NC[C@H]1CN(c2ccc(N3CCC(=O)C(CO)C3)c(F)c2)C(=O)O1 (stereo partly drawn) [Compound No. 37, (S)-N-{3-[3-fluoro-4-(3-hydroxymethyl-4-oxo-piperidin-1-yl)-phenyl]-2-oxo-oxazolidin-5-ylmethyl}-acetamide] |  | 2 (≈ 5.27 µM) | 2 (≈ 5.27 µM) | 8 (≈ 21.1 µM) |  | 
CC(=O)NC[C@H]1CN(c2ccc(N3CCC4(CC3)OCCO4)c(F)c2)C(=O)O1 [compound 28, (S)-N-{3-[4-(1,4-dioxa-8-aza-sprio[4.5]dec-8-yl)-3-fluoro-phenyl]-2-oxo-oxazolidin-5-ylmethyl}-acetamide] |  | 4 (≈ 10.2 µM) | 2 (≈ 5.08 µM) | 8 (≈ 20.3 µM) |  | 
CC(=O)NC[C@H]1CN(c2ccc(N3CCC(=NOC(=O)COC(C)=O)CC3)c(F)c2)C(=O)O1 [compound 43, (S)-N-{3-[3-fluoro-4-(4-acetoxyacetoxyimino-piperidin-1-yl)-phenyl]-2-oxo-oxazolidin-5-ylmethyl}-acetamide] |  | 1 (≈ 2.15 µM) | 0.5 (≈ 1.08 µM) | 4 (≈ 8.61 µM) |  | 
CC(=O)NC[C@H]1CN(c2ccc(N3CCC(=NN4CCN(CCO)CC4)CC3)c(F)c2)C(=O)O1 [compound 49, (S)-N-[3-(3-fluoro-4-{4-[4-(2-hydroxy-ethyl)-piperazin-1-ylimino]-piperidin-1-yl)-phenyl)-2-oxo-oxazolidin-5-ylmethyl]-acetamide] |  | 1 (≈ 2.1 µM) | 0.5 (≈ 1.05 µM) | 4 (≈ 8.39 µM) |  | 
CC(=O)NC[C@H]1CN(c2ccc(N3CCC(NC(=O)OCOC(C)=O)CC3)c(F)c2)C(=O)O1 [compound 65, (S)-N-(3-{4-[4-(acetoxy-methoxy-carbonylamino)-piperidin-1-yl]-3-fluorophenyl}-2-oxo-oxazolidin-5-ylmethyl)-acetamide] |  | 0.5 (≈ 1.07 µM) | 1 (≈ 2.14 µM) | 8 (≈ 17.2 µM) |  | 
CC(=O)NC[C@H]1CN(c2ccc(N3CCC(O)CC3)c(F)c2)C(=O)O1 [Compound No. 3, (S)-N-{3-[3-fluoro-4-(4-hydroxy-piperidin-1-yl)-phenyl]-2-oxo-oxazolidin-5-ylmethyl}-acetamide] |  | 2 (≈ 5.69 µM) | 2 (≈ 5.69 µM) | 8 (≈ 22.8 µM) | 1 (≈ 2.85 µM) | 
CCOC(=O)CC(=O)NN=C1CCN(c2ccc(N3C[C@H](CNC(C)=O)OC3=O)cc2F)CC1 [compound 56, (S)-(1-{4-[5-(acetylamino-methyl)-2-oxo-oxazolidin-3-yl]-2-fluorophenyl}-piperidin-4-ylidenehydrazinocarbonyl)-acetic acid ethyl ester] |  | 2 (≈ 4.19 µM) | 1 (≈ 2.09 µM) | 4 (≈ 8.38 µM) |  | 
CC(=O)NC[C@H]1CN(c2ccc(N3CCC(=NNC(=N)N)CC3)c(F)c2)C(=O)O1 [compound 42, (S)-N-{3-[3-fluoro-4-(4-amidinohydrazono-piperidin-1-yl)-phenyl]-2-oxo-oxazolidin-5-ylmethyl}-acetamide] |  | 0.5 (≈ 1.23 µM) | 2 (≈ 4.93 µM) | 8 (≈ 19.7 µM) |  | 
CC(=O)NC[C@H]1CN(c2ccc(N3CCC(C4(CO)OCCO4)CC3)c(F)c2)C(=O)O1 [Compound No. 44, (S)-N-(3-{3-fluoro-4-[4-(2-hydroxymethyl-[1,3]dioxolan-2-yl)-piperidin-1-yl]-phenyl}-2-oxo-oxazolidin-5-ylmethyl)-acetamide] |  | 24 (≈ 54.9 µM) | 2 (≈ 4.57 µM) | 16 (≈ 36.6 µM) |  | 
COC(=O)[C@H]1CN(c2ccc(N3CC(CNC(C)=O)OC3=O)cc2F)CCC1=O (stereo partly drawn) [Compound No. 34, (S)-1-{4-[5-(acetylamino-methyl)-2-oxo-oxazolidin-3-yl]-2-fluoro-phenyl}-4-oxo-piperidin-3-carboxylic acid methyl ester] |  | 4 (≈ 9.82 µM) | 4 (≈ 9.82 µM) | 16 (≈ 39.3 µM) |  | 
